Test results from patent publication US6984649B1, “Pyridine derivatives” (Bayer Aktiengesellschaft, priority 2000, dated 2006).
Where a name gives a salt, the structure may show the parent alone.

System: A549 human lung epithelium cell line
Experiment: RANTES production in response to TNF-α from A549 cells
Assay type: cell-based
Settings: A549 cells, 100 ng/ml TNF-α, read-out: Cellular activity grade (A549) (Cellular IC50)
Experimental: [The Measurement of RANTES Production in Response to TNF-α from A549 Cells]
(1) Preparation of A549 Cells
• The A549 human lung epithelium cell line (ATCC […]) was maintained in Dulbecco's modified Eagle's medium (D-MEM, Nikken Biomedical Institute) supplemented with 10% FCS (Gibco), 100 U/ml penicillin, 100 μg/ml streptomycin, and 2 mM glutamine (culture medium). Forty thousand (4×10^4) cells (80 μl/well) were seeded in each well of 96 well flat-bottom tissue culture plate (Falcon #3072). The plate was allowed to stand for 2 hrs, thus the cells were adhered to the bottom of each well. To the each well was added 10 μl vehicle (1% DMSO), serial dilutions of test compounds in 1% DMSO, or 5 nM Dexamethasone in 1% DMSO as a reference. The mixture (90 μl/well) was incubated for 1 hr at 37° C. After 1 hr, 1 μg/ml TNF-α (10 μl) in culture medium was added to the mixture to obtain 100 μl of reaction mixture. The reaction mixture was cultured for 24 hrs to stimulate the cells with 100 ng/ml TNF-α. Cells with vehicle without TNF-α stimulation were also prepared. (2) Measurement of RANTES Production • Then the concentration of RANTES released from the cells in the supernatants of each well was determined using a quantitative sandwich enzyme immunoassay technique. First, 2 μg/ml mouse anti-huRANTES mAb (R&D Systems, #mAb678) in PBS buffer (pH 7.4, 100 μl) was put in each well of 96-well NUNC fluoro plate (Nalge Nunc, New York USA) (Final 200 ng/well) and the plate was allowed to stand for overnight at 4° C. to be coated by the antibody. Each well of the plate was then washed with 350 μl wash buffer (0.05% Tween-20, 0.85% NaCl, and 25 mM Tris/HCl pH7.4) for three times. Blocking buffer containing 1% BSA (Sigma 99% pure, 100 g), 5% sucrose (Nacalai tesque, 99% pure, 500 g), and 0.02% azide (Nacalai tesque, 100%, 500 g) were added (200 μl) to each well and then the plate was allowed to stand for 4 hours to stabilize the coated antibody. Next, 50 μl supernatants of cell culture prepared in (1) above were put in each well of the 96-well NUNC fluoro plate with coated antibody. Recombinant Human RANTES (Pepro Tech, Inc. #300-06) was used as the standard for the determination of RANTES production (linear range between 1 and 10 ng/ml). Eu-labelled mouse anti-huRANES mAb (60 ng/ml: R&D Systems, #mAb278) in PBS supplemented by 1% BSA and 0.05% Tween 20 was added (50 μl) to each well. The reaction mixtures were incubated at room temperature for 4 hrs. After washing with wash buffer (0.05% Tween-20, 0.85% NaCl, and 25 mM Tris/HCl pH7.4, 350 μl/well) for 5 times with the use of a Sera Washer (Bio-Tech, #MW-96R), the enhancement solution (DELFIA, #1244-405, 100 μl/well) was added to each well. The plate was incubated for 10 minutes at room temperature with moderate shaking. Fluorescent intensity was measured using a DELFIA fluorimeter (Wallac). Excitation was performed at 340 nm and emission was measured at 615 nm. [The Measurement of TNF-α Production in Response to LPS from Peripheral Blood Mononuclear Cells (PBMC)] (1) Preparation of PBMC • Human PBMC were prepared by first obtaining blood from healthy donors and isolating the cells from the blood. The isolation was done by Ficoll gradient-centrifugation method using Ficoll Pacque (Pharmacia #17-1440-02). Within three hours from donation, the isolated PBMC was used. After three times washing with PBS, PBMC were resuspended with RPMI 1640 (Nikken BioMedical Institute) supplemented with 10% FCS (Gibco), 100 U/ml penicillin, 100 μg/ml streptomycin, and 2 mM glutamine (culture medium). The cells (1×10^5 in 150 μL/well) were seeded in each well of 96 well flat-bottom tissue culture plate (Falcon #3072). To the each well was added 20 μl vehicle (1% DMSO), serial dilutions of test compounds in 1% DMSO, or 250 nM Dexamethasone in 1% DMSO as a reference. The mixture (170 μl/well) was incubated for 1 hr at 37° C. After 1 hr, 20 ng/ml LPS (30 μl) in culture medium was added to the mixture to obtain 200 μl of reaction mixture. […]

SMILES	IC50
Nc1nc(-c2ccccc2O)cc2c1CNC2Cc1ccccc1 (stereo in doubt) [Example 20-3, 2-[(1S)-4-amino-1-benzyl-2,3-dihydro-1H-pyrrolo[3,4-c]pyridin-6-yl]phenol hydrochloride]	1 to 10 µM

Same assay, conditions: Homo sapiens, A549, A549 cells, 100 ng/ml TNF-α, read-out: Cellular activity grade (A549) (Cellular IC50)

SMILES	IC50
N#Cc1c(C2CCCNC2)cc(-c2ccccc2O)nc1N (stereo not drawn) [Example 1-1, 2-amino-6-(2-hydroxyphenyl)-4-(3-piperidinyl)-nicotinonitrile hydrochloride]	< 1 µM
N#Cc1c(C2CCNC2)cc(-c2ccccc2O)nc1N (stereo not drawn) [Example 1-2, 2-amino-6-(2-hydroxyphenyl)-4-(3-pirrolidinyl)nicotinonitrile trifluoroacetate]	< 1 µM
CC1(c2cc(-c3ccccc3O)nc(N)c2C#N)CCCNC1 (stereo not drawn) [Example 1-3, 2-amino-6-(2-hydroxyphenyl)-4-(3-methylpiperidin-3-yl)-nicotinonitrile hydrochloride]	1 to 10 µM
N#Cc1c(N)nc(-c2ccccc2O)c(F)c1C1CCCNC1 (stereo not drawn) [Example 1-4, 2-amino-5-fluoro-6-(2-hydroxyphenyl)-4-(3-piperidinyl)-nicotinonitrile trifluoroacetate]	1 to 10 µM
CNC1CCCC(c2cc(-c3ccccc3O)nc(N)c2C#N)C1 (stereo not drawn) [Example 1-5, 2-amino-6-(2-hydroxyphenyl)-4-[3-methylamino]cyclohexyl]nicotinonitrile hydrochloride]	1 to 10 µM
N#Cc1c(C2CCCNC2)cc(-c2ncccc2O)nc1N (stereo not drawn) [Example 1-6, 6-amino-3′-hydroxy-4-(3-piperidinyl)-2,2′-bipyridine-5-carbonitrile hydrochloride]	< 1 µM
N#Cc1c(C2CCCNC2)cc(-c2sccc2O)nc1N (stereo not drawn) [Example 1-7, 2-amino-6-(3-hydroxy-2-thienyl)-4-(3-piperidinyl)nicotinonitrile hydrobromide]	< 1 µM
N#Cc1c(C2CCCC(C(=O)O)C2)cc(-c2ccccc2O)nc1N (stereo not drawn) [Example 1-8, 3-[2-amino-3-cyano-6-(2-hydroxyphenyl)-4-pyridinyl]cyclohexanecarboxylic acid]	> 10 µM
N#Cc1c(C2=CCCNC2)cc(-c2ccccc2O)nc1N [Example 1-9, 2′-amino-6′-(2-hydroxyphenyl)-1,2,5,6-tetrahydro-3,4′-bipyridine-3′-carbonitrile hydrochloride]	< 1 µM
N#Cc1c(C2CCCNC2)cc(-c2c(N)cccc2O)nc1N (stereo not drawn) [Example 1-10, 2-amino-6-(2-amino-6-hydroxyphenyl)-4-(3-piperidinyl)nicotinonitrile hydrochloride]	> 10 µM
N#Cc1c(C2CCCNC2)cc(-c2c(O)cccc2NCc2ccccc2)nc1N (stereo not drawn) [Example 1-11, 2-amino-6-[2-(benzylamino)-6-hydroxyphenyl]-4-(3-piperidinyl)nicotinonitrile hydrochloride]	> 10 µM
CC(=O)Nc1cccc(O)c1-c1cc(C2CCCNC2)c(C#N)c(N)n1 (stereo not drawn) [Example 1-12, N-{2-[6-amino-5-cyano-4-(3-piperidinyl)-2-pyridinyl]-3-hydroxyphenyl}acetamide hydrochloride]	> 10 µM
N#Cc1c(C2CCCNC2)cc(-c2c(O)cccc2O)nc1N (stereo not drawn) [Example 2-1, 2-amino-6-(2,6-dihydroxyphenyl)-4-(3-piperidinyl)nicotinonitrile hydrochloride]	< 1 µM
N#Cc1c(C2CCCNC2)cc(-c2c(O)cccc2OCc2ccccc2)nc1N (stereo not drawn) [Example 2-2, 2-amino-6-[2-(benzyloxy)-6-hydroxyphenyl]-4-(3-piperidinyl)nicotinonitrile hydrochloride]	< 1 µM
N#Cc1c(C2CCNCC2)cc(-c2c(O)cccc2OCC2CC2)nc1N [Example 2-3, hydrochloride]	< 1 µM
CN1CCCC(c2cc(-c3c(O)cccc3OCC3CC3)nc(N)c2C#N)C1 (stereo not drawn) [Example 3-1, 2-amino-6-[2-(cyclopropylmethoxy)-6-hydroxyphenyl]-4-(1-methyl-3-piperidinyl)nicotinonitrile]	< 1 µM
N#Cc1c(C2CCCN(Cc3ccccc3)C2)cc(-c2c(O)cccc2OCC2CC2)nc1N (stereo not drawn) [Example 3-2, 2-amino-4-(1-benzyl-3-piperidinyl)-6-[2-(cyclopropylmethoxy)-6-hydroxyphenyl]nicotinonitrile]	> 10 µM
N#Cc1c(C2CCCNC2)cc(-c2ccccc2O)nc1NCc1ccccc1 (stereo not drawn) [Example 4-1, 2-(benzylamino)-6-(2-hydroxyphenyl)-4-(3-piperidinyl)nicotinonitrile hydrochloride]	1 to 10 µM
CCCNc1nc(-c2ccccc2O)cc(C2CCCNC2)c1C#N (stereo not drawn) [Example 4-2, 6-(2-hydroxyphenyl)-4-(3-piperidinyl)-2-(propylamino)nicotinonitrile hydrochloride]	> 10 µM
CNc1nc(-c2ccccc2O)cc(C2CCCNC2)c1C#N (stereo not drawn) [Example 4-3, 6-(2-hydroxyphenyl)-2-(methylamino)-4-(3-piperidinyl)nicotinonitrile hydrochloride]	> 10 µM
N#Cc1c(C2CCCNC2)cc(-c2ccccc2O)nc1Nc1ccccc1 (stereo not drawn) [Example 4-4, hydrochloride]	1 to 10 µM
Nc1n[nH]c2nc(-c3ccccc3O)cc(C3CCCNC3)c12 (stereo not drawn) [Example 5-1, 2-[3-amino-4-(3-piperidinyl)-1H-pyrazolo[3,4-b]pyridin-6-yl]phenol hydrochloride]	1 to 10 µM
CC(=O)Nc1n[nH]c2nc(-c3ccccc3O)cc(C3CCCNC3)c12 (stereo not drawn) [Example 5-2, N-[6-(2-hydroxyphenyl)-4-(3-piperidinyl)-1H-pyrazolo[3,4-b]pyridin-3-yl]acetamide hydrochloride]	> 10 µM
CC(=O)Nc1nc(-c2ccccc2O)cc(C2CCCNC2)c1C#N (stereo not drawn) [Example 6-1, N-[3-cyano-6-(2-hydroxyphenyl)-4-(3-piperidinyl)-2-pyridinyl]acetamide hydrochloride]	1 to 10 µM
CC(=O)Nc1nc(-c2c(O)cccc2OCC2CC2)cc(C2CCNCC2)c1C#N [Example 6-2, N-[3-cyano-6-[2-(cyclopropylmethoxy)-6-hydroxyphenyl]-4-(4-piperidinyl)-2-pyridinyl]acetamide hydrochloride]	< 1 µM
NC(=O)c1c(C2CCCNC2)cc(-c2ccccc2O)nc1N (stereo not drawn) [Example 7-1, 2-amino-6-(2-hydroxyphenyl)-4-(3-piperidinyl)nicotinamide hydrochloride]	1 to 10 µM
O=c1[nH]c(=O)c2c(C3CCCNC3)cc(-c3ccccc3O)nc2[nH]1 (stereo not drawn) [Example 7-2, 7-(2-hydroxyphenyl)-5-(3-piperidinyl)pyrido[2,3-d]pyrimidine-2,4(1H,3H)-dione hydrochloride]	> 10 µM
O=c1[nH]c2nc(-c3ccccc3O)cc(C3CCCNC3)c2c(=O)n1-c1ccccc1 (stereo not drawn) [Example 7-3, 7-(2-hydroxyphenyl)-3-phenyl-5-(3-piperidinyl)pyrido[2,3-d]pyrimidine-2,4(1H,3H)-dione hydrochloride]	> 10 µM
Nc1nc(-c2ccccc2O)cc2c1C(=O)N1CCCC2C1 (stereo not drawn) [Example 8-1, 6-amino-4-(2-hydroxy-phenyl)-5,9-diaza-tricyclo[7.3.1.0^2,7]trideca-2(7),3,5-trien-8-one]	1 to 10 µM
